# Measured values taken from patent US20220088031A1, “METHODS AND COMPOSITIONS FOR TREATING RESISTANT AND RECURRENT FORMS OF CANCER” (Health Research, Inc., priority 2019, published 2022).
# Experiments:
# Type in all cases: cell-based, human
# [1] = system: E006AA cells; experiment: Cell death quantification, Trypan blue exclusion assay
# Procedure: Cell viability assay: PCa cells (5×10^4 cells/well) were seeded on 6-well cell culture plates and incubated with DOC (1-20 nM) for 24 hrs. Floating and attached cells were collected using trypsinization. Live and dead cells were counted under a light microscope using a trypan blue exclusion assay.
# [2] = system: E006AA cells; experiment: Caspase-3 (DEVDase) activity assay; settings: DOC 24 hrs; AA PCa cells compared to CA PCa cells
# Procedure: Caspase-3 (DEVDase) activity assay: PCa cell lysates prepared in NP40 lysis buffer were incubated with DEVD-AFC (caspase-3 substrate) at 37° C. for 90 min in caspase activity assay buffer (50 mM HEPES pH 7.4, 150 mM NaCl, 1% CHAPS, 1 mM EDTA, 1 mM DTT, 50% glycerol). Fluorescence intensity was detected using a Synergy microplate reader at excitation and emission wavelengths of 400 nm and 508 nm, respectively. Arbitrary fluorescence units were normalized with protein content of cell lysates and represented as fold change compared to control groups.
# [3] = system: E006AA cells; experiment: Immunoblot analysis of CC in cytosolic and mitochondrial fractions; settings: DOC 24 hrs; AA PCa cells
# Procedure: (§1) Subcellular fractionation for the preparation of cytosolic and mitochondrial fractions: Cells were seeded on 15 cm cell culture plates followed by treatment with various compounds for the preparation of cytosolic and mitochondrial fractions as described. Cells were harvested via gentle scraping, washed twice with ice cold 1×PBS, and resuspended in homogenization buffer (20 mM HEPES, pH 7.4; 10 mM KCl; 1.5 mM MgCl2; 1 mM EDTA; 1 mM EGTA; 250 mM sucrose) supplemented with freshly added 1× protease inhibitor cocktail and 1 mM DTT. Cells were incubated in homogenization buffer for 30 min in ice and homogenized using a dounce homogenizer (˜25 strokes using pestle A). Cell homogenates were pre-cleared of unbroken cells and debris using centrifugation at 1000 g for 10 min. The supernatant was collected in new tubes and centrifuged at 12000 rpm for 20 min to obtain a mitochondrial pellet, which was washed 3 times with homogenization buffer and lysed in NP40 buffer, and stored as the mitochondrial fraction. The supernatant was ultra-centrifuged to obtain purified cytosol.
# (§2) Immunoblotting: Immunoblotting was performed as described previously. Protein lysates were prepared using a lysis in NP-40 buffer (50 mM Tris-HCl pH 7.4, 150 mM NaCl, 1 mM EDTA, 1 mM EGTA, 1% NP-40) supplemented with protease and phosphatase inhibitor cocktail. Protein content was quantified using a micro BCA protein estimation kit (Thermo Scientific, Waltham, Mass.; Cat #23235). Protein samples were resolved on 4-20% Criterion gels, transferred on nitrocellulose membranes (BioRad, Hercules, Calif.) and subjected to immunoblotting. Membranes were blocked in 5% fat free dry milk (Blotto, Santa Cruz, Dallas, Tex.; Cat #sc-2324) prepared in PBS-T (Tween-20) and incubated overnight in primary antibodies (1:1000 dilution) at 4° C. with continuous shaking. After washing with PBS-T, membranes were incubated in HRP conjugated anti-mouse or anti-rabbit secondary antibody at room temperature for 1 hr. After washing with PBS-T, proteins were detected using Clarity chemiluminescent reagent (BioRad, Hercules, Calif.; Cat #1705061) and X-Ray films (ASI, Fort Lauderdale, Fla.; Cat #XR1570). Membranes were stripped using stripping buffer and probed with HRP conjugated beta-actin antibody to ensure equal loading of proteins.
# [4] = system: LNCaP cells; experiment: Immunoblot analysis of CC and Drp1 in cytosolic and mitochondrial fractions; settings: CA PCa cells
# Procedure: as §1, with “The supernatant was ultra-centrifuged to obtain purified cytosol.” left out
# Immunoblotting: Immunoblotting was performed as described previously. […] Protein content was quantified using a micro BCA protein estimation kit (Thermo Scientific, Waltham, Mass.; Cat #23235). […] After washing with PBS-T, proteins were detected using Clarity chemiluminescent reagent (BioRad, Hercules, Calif.; Cat #1705061) and X-Ray films (ASI, Fort Lauderdale, Fla.; Cat #XR1570). […]
# [5] = system: E006AA cells; experiment: Clonogenic assay; settings: exposure of DOC; AA PCa cells
# Procedure: (§3) Clonogenic assay: PCa cells were seeded in each well of 6 well cell culture plates. Cells were treated and plates were incubated in a CO2 cell culture incubator for 6 more days. Colonies were fixed in 10% formalin first and stained with 0.5% crystal violet solution. Plates were dried and pictures were captured using a Gel documentation system and Coomassie blue filter (Bio Rad, Hercules, Calif.).
# [6] = system: LNCaP, DU145, PC-3 cells; experiment: Clonogenic assay; settings: exposure of DOC; CA PCa cells
# Procedure: as §3
# [7] = system: E006AA cells; experiment: Cell cycle analysis, PI staining; settings: DOC 24 hrs; AA PCa cells
# Procedure: (§4) Cell cycle analysis: Cell cycle phases in LNCaP and E006AA cells were analyzed using Propidium Iodide (PI) staining. Cells were treated with DOC for 24 hrs, fixed in 70% ethanol, stained with PI staining solution (0.1% sodium citrate, 0.2 mg/ml RNAse, 0.05 mg/ml propidium iodide, 0.2% NP 40, 1N HCl), and analyzed using flow cytometry. Data were analyzed using FACS-DIVA software and represented as % cells in each cell cycle phase.
# [8] = system: LNCaP cells; experiment: Cell cycle analysis, PI staining; settings: DOC 24 hrs; CA PCa cells
# Procedure: as §4
# [9] = system: p-Drp1^S616 in LNCaP cells; experiment: Immunoblot of p-Akt^S473 and p-Drp1^S616 after AKT inhibitor; settings: Wort 1 μM
# Procedure: as §2
smiles,measurement,setting,value
"O=C(O)C(=O)CBr [3-BrPA, 3-bromopyruvate]",cell death,[1]; in combination with DOC (24 hrs),induced dose-dependent cell death
"CC(=O)O[C@@]12CO[C@@H]1C[C@H](O)[C@@]1(C)C(=O)[C@H](O)C3=C(C)[C@@H](OC(=O)[C@H](O)[C@@H](NC(=O)OC(C)(C)C)c4ccccc4)C[C@@](O)([C@@H](OC(=O)c4ccccc4)[C@H]21)C3(C)C [DOC, Docetaxel]",DOC-induced cell death,"[1]; DOC 24 hrs, AA PCa cells compared to CA PCa cells",reduced in various AA PCa cells compared to CA PCa cells
same,DOC-induced caspase activation,[2],reduced in various AA PCa cells compared to CA PCa cells
same,CC expression and release from mitochondria to cytosol,[3],not in AA PCa cells
same,CC expression and release from mitochondria to cytosol,[4]; DOC 24 hrs,induced CC expression and release from mitochondria to the cytosolic compartment
same,Drp1 localization,[4]; in response to DOC,translocated to mitochondria
same,colony forming ability (CFA),[5],not AA PCa
same,colony forming ability (CFA),[6],abolished CFA
same,effect on the cell cycle,[7],cell cycle arrest at G2/M phase
same,effect on the cell cycle,[8],cell cycle arrest at G2/M phase
COC[C@H]1OC(=O)c2coc3c2[C@@]1(C)C1=C(C3=O)[C@@H]2CCC(=O)[C@@]2(C)C[C@H]1OC(C)=O [wortmanin],Drp1 phosphorylation at S616,[9],Inhibition of Drp1 phosphorylation at S616
